According to US7390806B2, “Antibiotics containing borinic acid complexes and methods of use” (Anacor Pharmaceuticals, Inc., priority 2002, dated 2008):
Values after ≈ are worked out from the molar mass of the structure shown. Where two headings read alike, the source gives them in different places.

What was measured:
E. faecalis ATCC 29212 = assay: MIC determination, E. faecalis ATCC 29212; type: cell-based, Enterococcus faecalis; conditions: Table 1
S. pneumoniae ATCC 6301 = assay: MIC determination, S. pneumoniae ATCC 6301; type: cell-based, Streptococcus pneumoniae; conditions: Table 1
M. tuberculosis H37Rv = assay: Anti-mycobacterium in vitro activity, H37Rv; type: cell-based, Mycobacterium tuberculosis; conditions: Sensitive strain; for MIC: Mycobacterium tuberculosis, H37RV
E. faecium CT-26 = assay: MIC determination, E. faecium CT-26; type: cell-based, Enterococcus faecium; conditions: Table 1
[1] = test system: S. epidermidis ATCC 12228; assay: MIC determination, S. epidermidis ATCC 12228; type: cell-based, Staphylococcus epidermidis; conditions: Table 1
S. aureus ATCC 29213 = assay: MIC determination, S. aureus ATCC 29213; type: cell-based, Staphylococcus aureus; conditions: Table 1
[2] = test system: Candida parapsilosis ATCC 22019; assay: Antifungal in vitro MIC, Candida parapsilosis; type: cell-based; conditions: for MIC: Lodderomyces parapsilosis
[3] = test system: Trichophyton mentagrophytes ATCC 10270; assay: Antifungal in vitro MIC, Trichophyton mentagrophytes; type: cell-based; conditions: for MIC: Trichophyton mentagrophytes
[4] = test system: Microsporum canis ATCC 10214; assay: Antifungal in vitro MIC, Microsporum canis; type: cell-based; conditions: for MIC: Microsporum canis
[5] = test system: Aspergillus fumigatus ATCC 204305; assay: Antifungal in vitro MIC, Aspergillus fumigatus; type: cell-based; conditions: for MIC: Aspergillus fumigatus
[6] = test system: Candida glabrata ATCC 15126; assay: Antifungal in vitro MIC, Candida glabrata; type: cell-based; conditions: for MIC: Nakaseomyces glabratus
[7] = test system: Candida albicans ATCC 90028; assay: Antifungal in vitro MIC, Candida albicans; type: cell-based; conditions: for MIC Candida albicans ATCC 90028: percent inhibition >= 80%
[8] = test system: M. catarrhalis ATCC 25238; assay: MIC determination, M. catarrhalis ATCC 25238; type: cell-based; conditions: Table 1

Compound	MIC E. faecalis ATCC 29212 (E. faecalis ATCC 29212)	M. tuberculosis MIC H37Rv (M. tuberculosis H37Rv)	MIC E. faecium CT-26 (E. faecium CT-26)	MIC S. epidermidis ATCC 12228 [1]	MIC S. aureus ATCC 29213 (S. aureus ATCC 29213)	MIC Candida parapsilosis ATCC 22019 ([2]; percent inhibition >= 80%)	MIC Trichophyton mentagrophytes ATCC 10270 ([3]; percent inhibition >= 80%)	MIC Microsporum canis ATCC 10214 ([4]; percent inhibition >= 80%)	MIC Aspergillus fumigatus ATCC 204305 ([5]; percent inhibition >= 80%)	MIC Candida glabrata ATCC 15126 ([6]; percent inhibition >= 80%)	MIC Candida albicans ATCC 90028 [7]	other results
Oc1cccc2cccnc12 [Compound 72, 8-hydroxyquinoline]	64 micrograms per ml	0.775 µg/mL	4 micrograms per ml	2 micrograms per ml	4 micrograms per ml	–	–	–	–	–	–	MIC S. pneumoniae ATCC 6301 (S. pneumoniae ATCC 6301): 4 micrograms per ml
Cc1ccc(B(OCCc2ccccn2)c2ccc(C)c(Cl)c2)cc1Cl [Compound 131, Bis(3-Chloro-4-methylphenyl)borinic acid 2-pyridylethanol]	–	–	–	–	–	>32 µg/mL	32 µg/mL (≈ 83.3 µM)	32 µg/mL (≈ 83.3 µM)	>32 µg/mL	>32 µg/mL	2 µg/mL (≈ 5.21 µM)	–
Oc1cccc2cccnc12 [Compound 75, 8-hydroxyquinoline]	64 micrograms per ml	0.775 µg/mL	4 micrograms per ml	1 micrograms per ml	2 micrograms per ml	–	–	–	–	–	–	MIC S. pneumoniae ATCC 6301 (S. pneumoniae ATCC 6301): 2 micrograms per ml
Cc1ccc(B(OCc2nccn2C)c2ccc(C)c(Cl)c2)cc1Cl [Compound 128, Bis(3-Chloro-4-methylphenyl)borinic acid 1-methyl-2-(hydroxymethyl)-imidazole ester]	–	–	–	–	–	16 µg/mL (≈ 42.9 µM)	16 µg/mL (≈ 42.9 µM)	12 µg/mL (≈ 32.2 µM)	>32 µg/mL	32 µg/mL (≈ 85.8 µM)	1 µg/mL (≈ 2.68 µM)	–
OC(Cn1cncn1)(Cn1cncn1)c1ccc(F)cc1F [Fluconazole, reference compound]	–	–	–	–	–	–	–	–	–	–	–	MIC ([2]; ATCC22019, percent inhibition >= 80%, read-out: MIC Candida parapsilosis ATCC 22019): 2.5 µg/mL (≈ 8.16 µM); MIC ([3]; ATCC10270, percent inhibition >= 80%, read-out: MIC Trichophyton mentagrophytes ATCC 10270): 16 µg/mL (≈ 52.2 µM); MIC ([4]; ATCC10214, percent inhibition >= 80%, read-out: MIC Microsporum canis ATCC 10214): 16 µg/mL (≈ 52.2 µM); MIC ([5]; ATCC204305, percent inhibition >= 80%, read-out: MIC Aspergillus fumigatus ATCC 204305): > 64 µg/mL; MIC ([6]; ATCC15126, percent inhibition >= 80%, read-out: MIC Candida glabrata ATCC 15126): 3 µg/mL (≈ 9.8 µM)
Oc1cccc2cccnc12 [Compound 53, 8-hydroxyquinoline]	64 micrograms per ml	0.775 µg/mL	4 micrograms per ml	2 micrograms per ml	2 micrograms per ml	–	–	–	–	–	–	MIC ([2]; ATCC22019, read-out: MIC Candida parapsilosis ATCC 22019): 32 µg/mL (≈ 220 µM); MIC M. catarrhalis ATCC 25238 [8]: 2 micrograms per ml; MIC ([3]; ATCC10270, read-out: MIC Trichophyton mentagrophytes ATCC 10270): > 32 µg/mL; MIC ([4]; ATCC10214, read-out: MIC Microsporum canis ATCC 10214): 16 µg/mL (≈ 110 µM); MIC ([5]; ATCC204305, read-out: MIC Aspergillus fumigatus ATCC 204305): > 32 µg/mL; MIC ([6]; ATCC15126, read-out: MIC Candida glabrata ATCC 15126): > 32 µg/mL; MIC ([7]; Candida albicans, ATCC90028, read-out: MIC Candida albicans ATCC 90028): 1 µg/mL (≈ 6.89 µM)
Oc1cccc2cccnc12 [Compound 51, 8-hydroxyquinoline]	8 micrograms per ml	0.387 µg/mL	2 micrograms per ml	1 micrograms per ml	2 micrograms per ml	–	–	–	–	–	–	–
Nc1ccc(C(=O)O)c(O)c1 [p-aminosalicylate]	–	<0.25 µg/mL	–	–	–	–	–	–	–	–	–	–
C[C@@H]1[C@H](O)[C@@H](C)/C=C/C=C/C=C/C=C/C=C/C=C/C=C/[C@H](O[C@@H]2O[C@H](C)[C@@H](O)[C@H](N)[C@@H]2O)C[C@@H]2O[C@](O)(C[C@@H](O)C[C@@H](O)[C@H](O)CC[C@@H](O)C[C@@H](O)CC(=O)O[C@H]1C)C[C@H](O)[C@H]2C(=O)O [Amphotericin B, reference compound]	–	–	–	–	–	0.75 µg/mL (≈ 0.812 µM)	1 µg/mL (≈ 1.08 µM)	0.5 µg/mL (≈ 0.541 µM)	1 µg/mL (≈ 1.08 µM)	0.75 µg/mL (≈ 0.812 µM)	1 µg/mL (≈ 1.08 µM)	–
CCn1ccnc1COB(c1ccc(C)c(Cl)c1)c1ccc(C)c(Cl)c1 [Compound 129, Bis(3-Chloro-4-methylphenyl)borinic acid 1-ethyl-2-(hydroxymethyl)-imidazole ester]	–	–	–	–	–	32 µg/mL (≈ 82.7 µM)	32 µg/mL (≈ 82.7 µM)	16 µg/mL (≈ 41.3 µM)	>32 µg/mL	>32 µg/mL	1 µg/mL (≈ 2.58 µM)	–
Clc1ccc(B(OCc2cnc[nH]2)c2ccc(Cl)cc2)cc1 [Compound 126, Bis(4-Chlorophenyl)borinic acid 4-(hydroxymethyl)imidazole ester]	–	–	–	–	–	32 µg/mL (≈ 96.7 µM)	>32 µg/mL	16 µg/mL (≈ 48.3 µM)	>32 µg/mL	>32 µg/mL	1 µg/mL (≈ 3.02 µM)	–
CO[C@H]1/C=C/O[C@@]2(C)Oc3c(C)c(O)c4c(O)c(c(/C=N/N5CCN(C)CC5)c(O)c4c3C2=O)NC(=O)/C(C)=C\C=C\[C@H](C)[C@H](O)[C@@H](C)[C@@H](O)[C@@H](C)[C@H](OC(C)=O)[C@@H]1C [Rifampicin]	–	–	–	–	–	–	–	–	–	–	–	MIC (M. tuberculosis H37Rv): < 0.125 µg/mL
Oc1cccc2cccnc12 [Compound 50, 8-hydroxyquinoline]	4 micrograms per ml	0.387 µg/mL	4 micrograms per ml	2 micrograms per ml	2 micrograms per ml	–	–	–	–	–	–	MIC S. pneumoniae ATCC 6301 (S. pneumoniae ATCC 6301): 2 micrograms per ml
Oc1cccc2cccnc12 [Compound 65, 8-hydroxyquinoline]	16 micrograms per ml	0.775 µg/mL	4 micrograms per ml	2 micrograms per ml	2 micrograms per ml	–	–	–	–	–	–	MIC S. pneumoniae ATCC 6301 (S. pneumoniae ATCC 6301): 2 micrograms per ml; MIC M. catarrhalis ATCC 25238 [8]: 4 micrograms per ml
NNC(=O)c1ccncc1 [Isoniazid (INH), Isoniazid]	–	–	–	–	–	–	–	–	–	–	–	MIC (M. tuberculosis H37Rv): < 0.062 µg/mL
NC[C@H]1O[C@H](O[C@H]2[C@H](O)[C@@H](O[C@H]3O[C@H](CO)[C@@H](O)[C@H](N)[C@H]3O)[C@H](N)C[C@@H]2N)[C@H](O)[C@@H](O)[C@@H]1O [Kanamycin]	–	–	–	–	–	–	–	–	–	–	–	MIC (M. tuberculosis H37Rv): < 2 µg/mL
Oc1cccc2cccnc12 [Compound 10, 8-hydroxyquinoline]	32 micrograms per ml	0.387 µg/mL	4 micrograms per ml	2 micrograms per ml	1 micrograms per ml	–	–	–	–	–	–	MIC S. pneumoniae ATCC 6301 (S. pneumoniae ATCC 6301): 2 micrograms per ml
Cc1ccc(B(OCc2cn(Cc3ccccc3)cn2)c2ccc(C)c(Cl)c2)cc1Cl [Compound 127, Bis(3-Chloro-4-methylphenyl)borinic acid 1-benzyl-4-(hydroxymethyl)-imidazole ester]	–	–	–	–	–	16 µg/mL (≈ 35.6 µM)	32 µg/mL (≈ 71.2 µM)	16 µg/mL (≈ 35.6 µM)	>32 µg/mL	>32 µg/mL	1 µg/mL (≈ 2.23 µM)	–
Oc1cccc2cccnc12 [Compound 55, 8-hydroxyquinoline]	4 micrograms per ml	0.775 µg/mL	2 micrograms per ml	1 micrograms per ml	2 micrograms per ml	–	–	–	–	–	–	MIC S. pneumoniae ATCC 6301 (S. pneumoniae ATCC 6301): 2 micrograms per ml; MIC M. catarrhalis ATCC 25238 [8]: 4 micrograms per ml
Cc1ccc(B(OCc2cn(C)cn2)c2ccc(C)c(Cl)c2)cc1Cl [Compound 130, Bis(3-Chloro-4-methylphenyl)borinic acid 1-methyl-4-(hydroxymethyl)-imidazole ester]	–	–	–	–	–	0.5 µg/mL (≈ 1.34 µM)	0.5 µg/mL (≈ 1.34 µM)	0.5 µg/mL (≈ 1.34 µM)	0.5 µg/mL (≈ 1.34 µM)	0.5 µg/mL (≈ 1.34 µM)	1 µg/mL (≈ 2.68 µM)	–
CC1COc2c(N3CCN(C)CC3)c(F)cc3c(=O)c(C(=O)O)cn1c23 (centres unmarked) [Ofloxacin]	–	–	–	–	–	–	–	–	–	–	–	MIC (M. tuberculosis H37Rv): 4 µg/mL (≈ 11.1 µM)
